# Assay: DPPH (2,2-diphenyl-1-picrylhydrazyl) in vitro antioxidant / radical scavenging test
# Format: biochemical
# Details: 517 nm; for Inhibition: radical scavenging inhibition of DPPH, vitamin C as reference
# Procedure: A new polyfunctionalized pyridine 6′-(4-bromophenyl)-2′-ethoxy-3,4′-bipyridine-3′-carbonitrile (4) was investigated for its antioxidant activity by 2,2-diphenyl-1-picrylhydrazyl (DPPH) in vitro tests that employ vitamin C as the positive control. The product 4 magnitude estimated the antioxidant potential to vanish the DPPH radical distinctive colors at 517 nm. […] The radical scavenging inhibition was calculated using the following equation: […]
Compound,antioxidant potential compared to vitamin C (DPPH in vitro test),Inhibition [%]
"CCOc1nc(-c2ccc(Br)cc2)cc(-c2cccnc2)c1C#N [Product 4, 6′-(4-bromophenyl)-2′-ethoxy-3,4′-bipyridine-3′-carbonitrile]",high potential as an antioxidant,48
"O=C1O[C@H]([C@@H](O)CO)C(O)=C1O [vit c, vitamin C, reference compound]",,74
